In US8835629B2, “Anti-cancer agents” (The Walter and Eliza Hall Institute of Medical Research, priority 2010, dated 2014):
Entries after “also recorded” stand apart in the source; their conditions may differ.

Assays:
SW480 = assay: Antimitotic effects (G2/M cell cycle block, DNA staining, ModFit) on SW480; format: cell-based, human
Excerpt: (§1) For the initial studies two colon carcinoma cell lines (LIM1215 and SW480) and two breast cancer cell lines (MDA-MB-231 and MCF-7) were used. Taxol was used as comparator in these experiments (Table 1).

MCF-7 = assay: Antimitotic effects (G2/M cell cycle block, DNA staining, ModFit) on MCF-7; format: cell-based, human
Excerpt: as §1

BaF/3 = assay: MTT cell proliferation assay, BaF/3; format: cell-based; settings: Mus musculus, BaF3, 72 h; BaF/3 murine B-cell progenitor line; MTT after 3 days of incubation; read-out: IC50, inhibition of proliferation
Procedure: (§2) Compound 2 was tested on a series of cell lines to determine its activity and selectivity (Table 2). Cell proliferation was measured using the MTT assay (for protocol see Example 2.6) after 3 days of incubation with the inhibitor.
(§3) • Cells plated at […] in 100 μl medium+5% FCS (+Adds^1): • Cells incubated overnight: • Titrate inhibitors in a fresh plate in 150 μl medium • Transfer 100 μl titrated compounds to matching wells of the cell plate. • Incubate a further 4 days: • Add 10 μl MTS^2 or MTT^3 for 1.5 to 2 hours and read on Multiscanner (wavelengths 492/690) ^1 Additives for culture of LIM cell lines: 10 μM thioglycerol, 0.025 U/ml insulin, 1 μg/ml hydrocortisone. ^2 3-(4,5-dimethylthiazol-2-yl)-5-(3-carboxymethoxyphenyl)-2-(4-sulfophenyl)-2H-tetrazolium. ^3 3-(4,5-Dimethylthiazol-2-yl)-2,5-diphenyltetrazolium bromide
(§4) Cells are trypsinized and washed ×2 in medium+5% FCS and plate out at 10^4 cells per well in 100 μl.
(§5) Incubate plates o/n 37° C.+5%-10% CO2 incubator.
(§6) Inhibitors are dissolved in DMSO to make 10 mM stocks and titrated in a 96 well plate in duplicate to use as the stock for the test plate. […]
(§7) Read OD of plates on Thermo Multiskan Ex, at 560/690 nm.

LIM 2405 = assay: MTT cell proliferation assay, LIM 2405; format: cell-based; settings: 72 h; LIM 2405 human colorectal carcinoma; MTT after 3 days of incubation; read-out: IC50, inhibition of proliferation
Procedure: as §2, §3, §4, §5, §6, §7

SW 480 = assay: MTT cell proliferation assay, SW 480; format: cell-based; settings: SW480, 72 h; SW 480 human colorectal carcinoma; MTT after 3 days of incubation; read-out: IC50, inhibition of proliferation
Procedure: as §2, §3, §4, §5, §6, §7

MDA-MB-231 = assay: MTT cell proliferation assay, MDA-MB-231; format: cell-based; settings: 72 h; MDA-MB-231 human breast carcinoma; MTT after 3 days of incubation; read-out: IC50, inhibition of proliferation
Procedure: as §2, §3, §4, §5, §6, §7

[1] = Dose escalation in mice (tolerability and toxicity); format: in vivo
Procedure: Compound 1 was initially tested for tolerability and toxicity in mice. C57Bl/6 mice (aged 8-12 weeks) were injected subcutaneously with escalating doses of Compound 1 in a constant volume of DMSO. Mice were sacrificed 24 hrs post-injection. There were no adverse effects of doses up to 80 mg/kg within this time-frame. Thus the compound is well tolerated at doses that far exceed the IC50 observed “in vitro”.
These minor skin lesions healed readily within 2-3 days.

[2] = test system: U87MG(Δ2-7) (brain cancer cell line) tumours; assay: Tumor xenograft study with U87MG(Δ2-7); format: in vivo, Balb/c nu/nu mice
Procedure: FIG. 8: U87MG(Δ2-7) tumor growth in nude mice. Tumor diameters were measured with external callipers every three days and tumor volume calculated with the formula: π/6×(L×W2).
Mice: Balb/c nu/nu male; 8 controls and 8 treated.
Cells inoculated: U87MG(Δ2-7) at 2.13×10^6 cells/tumour; two tumours per mouse.
(§8) Dose: Compound 2 at 20 mg/kg=100 μl of 4 mg/ml in water for injection per 20 g mouse. Control mice were injected with 100 μl water for injection.
Treatment and monitoring: Treatment commenced at Day 5 after inoculation. Mice were injected SC in abdomen three times per week (Mon, Wed, Fri), on alternating sides. Mice were weighed, tumour diameters measured in two dimensions and the health of the mice was monitored.
After mice were sacrificed: the tumours were dissected and weighed; spleens and livers were also weighed.

[3] = test system: H1437 (non-small cell lung cancer cell line) tumours; assay: Tumor xenograft study with H1437; format: in vivo, Balb/c nu/nu mice
Procedure: FIG. 10: H1437 tumor growth in nude mice. Tumor diameters were measured with external callipers every three days and tumor volume calculated with the formula: π/6×(L×W2).
Mice: Balb/c nu/nu male; 8 controls and 8 treated; 5 weeks old.
Cells inoculated: H1437 (non-small cell lung cancer cell line) at 2×10^6 cells/tumour; two tumours per mouse.
as §8
Treatment and monitoring: Treatment commenced at Day 5 after inoculation. Mice were injected SC in abdomen three times per week, on alternating sides. Mice were weighed; tumour diameters measured in two dimensions and the health of the mice was monitored. Injections correspond to data points on the plots, with an additional treatment on Day 14 when no measurements were made.

[4] = 20 mg/kg SC three times per week, post mortem

COc1ccc(CNc2nc(NCc3ccc(CN)cc3)nc(NN3CC(=O)NC3=O)n2)cc1 (single isomer, unassigned) [Compound 2, 1-[4-(4-aminomethyl-benzylamino)-6-(4-methoxybenzylamino)-{1,3,5}-triazin-2-yl-amino]-imidazolidine-2,4-dione]
% of Taxol (proportion of cells in G2M test/proportion of cells in G2M Taxol) (SW480; 24 hrs, standard 1 μM Taxol): 113%
IC50 (SW480; Homo sapiens, inhibitors added to cells in log-growth for 24 hrs, read-out: IC50 for progression through the cell cycle): 250 nM
% of Taxol (proportion of cells in G2M test/proportion of cells in G2M Taxol) (MCF-7; 24 hrs, standard 1 μM Taxol): 102%
IC50 (MCF-7; Homo sapiens, MCF7, inhibitors added to cells in log-growth for 24 hrs, read-out: IC50 for progression through the cell cycle): 9 nM
IC50 (BaF/3): 30 nM
IC50 (LIM 2405): 30 nM
IC50 (SW 480): 30 nM
IC50 (MDA-MB-231): 10 nM
Time for healing of minor skin lesions ([1]; BALB/c nude, mouse, in vivo, 20 mg/kg): 2 to 3 days
Effect at injection site ([1]; at 21.5 and 64.5 mg/kg): indications of skin thinning at the injection site in some mice
Doses with no adverse effects in outward health or behaviour ([1]; mice, for 4 days): up to 64.5 mg/kg
Skin effect in BALB/c nude mice ([1]; mouse, in vivo, 20 mg/kg): some skin lesions
Tumour growth (tumour volume) ([2]; 20 mg/kg SC three times per week from day 5, terminated at 14 days): significant difference in volume between control and treated tumours; also recorded: reduced the growth of the tumours
Liver or spleen weights vs vehicle control [2, 4]: no significant difference
Tumor weight [2, 4]: greatly reduced
Tumour growth (tumour volume) ([3]; 20 mg/kg SC three times per week from day 5, terminated at 26 days): Clear difference; also recorded: significant difference in volume between control and treated tumours
Size of dissected tumours ([3]; 20 mg/kg three times per week, after sacrifice): clear difference in size
